Consider five molecules from patent US9216181B2 (Southwest Research Institute, priority 2011, dated 2015).

Data set [1] concerns BMP-2. Kind of data set: Study II real time PCR, BMP-2 up-regulation in mesenchymal stem cells. Format: cell-based, human. Particulars: hMSC, 24 hour. How it is done:
(§1) The testing procedure follows.
(§2) Cells based assays are done using 6 wells tissue culture plates, seeded with human mesenchymal stem cells (MSC) from Lonza, culture at 80% density. After seeding cells are treated with selected compounds at 10 μM, 5 μM and 2.5 μM for a 24 hour period, mRNA is collected using Qiagen kit RNAeasy kit and cDNA is prepared with same Qiagen kit, RT-PCR is done using kit from SABiosciences to measure gene expression for BMP2, 4 and 7 and run in Applied Biosystems Step One Plus. The protocol for mRNA isolation is described below.
(§3) Human mesenchymal stem cell growth medium passage 3 plated in a 6 well plate at 2.5×10^5 cells/well in hMSC Basal Medium+BulletKit (50 ml Growth Supplement, 10 ml L-Glutamine and 0.5 ml Gentamicin Sulfate Amphotericin-B) for 24 hrs. The compounds to be tested were added and after 24 hrs the media was aspirated, rinsed well once with PBS, and aspirated again. 350 ul of Lysis Buffer was added and the cells were stored at −20° C.
(§4) The lysate was homogenized by pipetting the lysate directly into a QIA shredder spin column placed in a 2-mL collection tube, and centrifuge for 2 min at full speed. 70% ethanol was added (1 vol. or […]) to the homogenized lysate (now at the bottom of the collection tube), and mixed well by pipetting. Up to 700 μL of the sample was transferred, including any precipitate that may have formed, to an RNeasy spin column placed in a 2-mL collection tube. This was centrifuged for 15 seconds at full speed. 700 μL of Buffer RW1 was added to the RNeasy spin column. This was centrifuged for 15 seconds at full speed to wash the spin column membrane.
(§5) 500 μL of Buffer RPE was added to the RNeasy spin column and centrifuged for 15 seconds at full speed. The flow through was discarded. 500 μL of Buffer RPE was added to the RNeasy spin column and centrifuged for 2 minutes at full speed to wash the spin column membrane. The RNeasy spin column was removed from the collection tube and the flow-through was discarded.
(§6) The RNeasy spin column was placed in a new 2-mL collection tube and centrifuged for 1 minute at full speed. The RNeasy spin column was removed from the collection tube, and the flow-through was discarded. The RNeasy spin column was placed in a new 1.5-mL collection tube. 30-50 μL of RNase-free water was added directly to the spin column membrane and this was centrifuged for 1 minute at full speed to elute the RNA.
(In qPCR the cycle at which signal appears reflects the starting amount.)

A further data set has as its system BMP-4. Kind of data set: Study II real time PCR, BMP-4 up-regulation in mesenchymal stem cells. The data set is classed as cell-based, human. Particulars: hMSC, 24 hour, 2.5, 5 and 10 μM tested. As to the method:
as §1, §2, §3, §4, §5
The RNeasy spin column was placed in a new 2-mL collection tube and centrifuged for 1 minute at full speed. […]

In a further data set the test system is BMP-7. Kind of data set: Study II real time PCR, BMP-7 up-regulation in mesenchymal stem cells. The data set is classed as cell-based, human. The conditions noted are these: hMSC. How it is done: as §1, §2, §3, §4, §5, §6
Data set [2] relates to human mesenchymal stem cells (MSC). Format: cell-based. Also on record: key: *: Dose caused cell death. Particulars: hMSC, 24 hrs.
In data set [3] the test system is BMP-2. Briefly: Real time PCR of BMP-2 gene expression in human MSC (Cells-to-Ct). The data set is classed as cell-based. The conditions noted are these: BMP-2 mRNA, hMSC, 5-10 μM, 24 hours, vs untreated; BIOMOL library (Table 2). How it is done:
Early passage human mesenchymal stem cells (MSC) were thawed from one frozen cryo-vial and seeded into two T-75 tissue culture flasks and incubated at 37° C. for 48 hours in Alpha MEM with 10% FBS. After three days and one re-feeding, the cells were trypsinized and re-suspended in pre-warmed media at 5×10^4 cells/mL to provide 5,000 cells per well in a 96 well plate and incubated overnight at 37° C. in 5% CO2.
Each well was washed in cold PBS, lysed at room temperature for five minutes, and stop reagent added to each well to stop the lysis reaction. The final lysate was kept cold at 4° C. and used immediately as the RNA template for the reverse transcription cDNA synthesis following the TAQMAN GENE EXPRESSION CELLS TO CT KIT instructions.
The cDNA synthesis was prepared on a separate sterile 96-well PCR plate and performed on the Step One Plus Real Time PCR System instrument (Applied Biosystems) with the programming set at 37° C. for 60 minutes and an inactivation hold of 95° C. for five minutes. The final cDNA reaction was kept cold and used as the template for the TAQMAN GENE Real-Time PCR step following the recommended instructions for TAQMAN GENE EXPRESSION CELLS TO CT KIT assay. […] Template cDNA's were added separately to respective individual wells in replicate samples.
The PCR was performed on the STEPONEPLUS Real-Time System instrument (Applied Biosystems). The amplification program consisted of 1 cycle of 95° C. with 10 minute hold (hot start) and followed by 50 cycles of 95° C. with 15-second annealing hold and 1-minute 60° C. specified acquisition hold.

A further data set relates to BMP2. Briefly: Quantitative PCR (TaqMan, ΔΔCt) of BMP2 in human mesenchymal stem cells. Particulars: Homo sapiens, Mesenchymal stem cells; BMP2 mRNA, hMSC, 10 μM, vs untreated, 18S reference; BIOMOL library (Table 2); read-out: q-PCR Fold increase. The data set is classed as cell-based. As to the method:
(§7) Human mesenchymal stem cells (LONZA, Catalog PT2501) were maintained in Mesenchymal stem cells basal media (MSCBM CAT#PT-3238). Early passage cells were plated in triplicate at 2×10^4 cells/cm^2 using six well tissue culture plates and grown in humidified 5% CO2 at 37° C. for 24 hours. Spent media was replaced by assay media of drugs to be tested in same media as above at 10 μM final concentration. Untreated cells were used as the control group. Total RNA were prepared using either TRI Reagent (Ambion, Cat. 9738), for subsequent TaqMan gene expression qPCR of BMP2. RNA concentration and integrity was assessed by absorbance 260/280 and electrophoresis in 1% Agarose with formaldehyde loading dye. For TaqMan gene expression, cDNA was synthesized from 2 μg of total RNA using the High Capacity cDNA Reverse Transcription Kit (Applied Biosystems, Cat. 4368814). The resulting cDNA were diluted 1:100 for TaqMan and amplified by real-time quantitative PCR. Gene-specific fluorescent labeled TaqMan primers for FAM-BMP2 (Applied Biosystems, Hs00154192.m1) and TaqMan reference VIC-18S ribosomal RNA (Applied Biosystems, 4310893E) were used to target gene of interest. A cocktail of universal master mix (Applied Biosystems, 4369016) were prepared individually for both set of primers which contained Taq Polymerase, dNTPs, and buffer. Template cDNA's were added separately to respective individual wells in triplicate samples. The PCR were performed on StepOne Plus Real Time System instrument (Applied Biosystems). The amplification program consisted of 1 cycle of 95° C. with 10 minute hold (hot start) followed by 50 cycles of 95° C. with 15 second annealing hold and 1 minute 60° C. specified acquisition hold. The Ct value of endogenous reference gene (i.e. 18 s) was used to control for input RNA and then used to normalize target gene (i.e. BMP2) tested from the same cDNA sample to calculate the Δ Ct, and then calibrated to an internal reference sample. Change in gene expression was determined by the expression ΔΔCt relative method.
18 compounds were confirmed positive by the more stringent qPCR techniques. […] Included in the tables is the target or common medical use for each compounds.

For data set [4], the system named is BMP-2. Briefly: BMP-2 fold change of JHU library compounds, confirmed by qPCR. Format: cell-based, human. The conditions noted are these: JHU library compounds; non-treated = 1.00.
Source text: To further verify the technique, a 2T3 mouse pre-osteoblast cell line derived from calvaria courtesy of Dr. Steve Harris, UTHSCSA, was utilized to visually screen the compounds of the BIOMOL library and JHU libraries, purchased from John Hopkins University including 2387 compounds (solution in wells). Specifically, Murine 2T3 were thawed from one frozen cryovial and re-seeded into two T-75 tissue culture flasks grown in Alpha MEM with 10% FBS, Glutamine, and Pen/Strip antibiotics. Cells were incubated in a humidified 37° C. under 5% CO2 for 48 hours or when cells reached 80% confluence. After reaching confluency, the 2T3 were trypsinized and resuspended in pre-warm growth media to a cell density of 5×10^4 cells/mL. Approximately 100 uL of cell suspension was seeded to a 96 well plate to give a final 5,000 cells per well. Plate was incubated overnight at 37° C. and spent media was aspirated and replace with 100 uL of growth media with 5-10 uM of presumptive drug compounds. A set of controls were untreated and treated with 10 uM of Lovastatin to be used as a visual reference morphological screening.
as §7, with “Total RNA were prepared using either TRI Reagent (Ambion, Cat. 9738), for subsequent TaqMan gene expression qPCR of BMP2.” left out, “Gene-specific fluorescent labeled TaqMan primers for FAM-BMP2 (Applied Biosystems, Hs00154192.m1) and TaqMan reference VIC-18S ribosomal RNA (Applied Biosystems, 4310893E) were used to target gene of interest.” left out, “The Ct value of endogenous reference gene (i.e. 18 s) was used to control for input RNA and then used to normalize target gene (i.e. BMP2) tested from the same cDNA sample to calculate the Δ Ct, and then calibrated to an internal reference sample.” left out
Included in the tables is the target or common medical use for each compounds.

Where two headings read alike, the source gives them in different places.

In the case of `CC(C)(C)c1ccc(C(=O)CCCN2CCC(OC(c3ccccc3)c3ccccc3)CC2)cc1` [Ebastine], the “BMP-2 Fold Increase/Dose” value in the data set with BMP-2 [1] (10 μM) is on record as ~8/10 μM fold. Moreover, the “BMP-2 fold increases (in words)” value in the data set on BMP-2 [1] is reported as “exhibit BMP-2 fold increases”. For the same molecule, the “BMP-4 Fold Increase/Dose” value in the data set with BMP-4 is “None”. Further, the “BMP-7 Fold Increase/Dose” value in the data set on BMP-7 (10 μM, 24 hour) was ~3/10 fold. Also, the “BMP-7 fold increases (in words)” value in the data set on BMP-7 (24 hour) is “exhibit BMP-7 fold increases”. The cell death result in data set [2] (10 uM) is on record as “*Ebastine”.

With `CCCOc1ccc2nc(NC(=O)OC)[nH]c2c1` [Oxibendazole], in the data set on BMP-2 [3], the “RT PCR Fold increase” value stood at 4.5 fold. Further, the fold induction at 10 µM in the data set on BMP2 turned out to be 1.4. For the same molecule, the “Fold change (BMP-2)” value in the data set on BMP-2 [4] is 18.00 fold.

Regarding `CN(C)CCC(c1ccccc1)c1ccccn1` (centres unmarked) [Pheniramine], in the data set on BMP-2 [1] (10 μM), the “BMP-2 Fold Increase/Dose” value was ~2/10 μM fold. Also, in the data set on BMP-2 [1], the “BMP-2 fold increases (in words)” value is “exhibit BMP-2 fold increases”. Further, the “BMP-4 Fold Increase/Dose” value in the data set with BMP-4 is given as “None”. In addition, the “BMP-7 Fold Increase/Dose” value in the data set on BMP-7 (24 hour, 2.5, 5 and 10 μM tested, no dose stated) is “None”.

On to `CCN(CC)CCCC(C)Nc1c2ccc(Cl)cc2nc2ccc(OC)cc12` (centres unmarked) [Quinacrine], for which, in the data set with BMP-2 [3], the “RT PCR Fold increase” value is recorded as 52.9 fold. The fold induction at 10 µM with BMP2 came out at 95. Further, the “Fold change (BMP-2)” value in the data set on BMP-2 [4] was determined as 722.00 fold. For the same molecule, the cell death entry in data set [2] (5 uM) and in data set [2] (10 uM) was “*Quinacrine” in each case.

As to `COc1ccc(CCN2CCC(Nc3nc4ccccc4n3Cc3ccc(F)cc3)CC2)cc1` [Astemizole], the “RT PCR Fold increase” value in the data set with BMP-2 [3] is on record as 156.2 fold. Also, in the data set on BMP2, the fold induction at 10 µM worked out at 1. Also, the “BMP-2 Fold Increase/Dose” value in the data set on BMP-2 [1] (5 μM) is recorded as approximately 30 fold; in the data set on BMP-2 [1] (10 μM), approximately 7 fold. Further, the “BMP-2 fold increases (in words)” value in the data set on BMP-2 [1] is on record as “exhibit BMP-2 fold increases”. The “BMP-4 Fold Increase/Dose” value in the data set with BMP-4 is reported as “None”. In the data set with BMP-7 (2.5 μM, 24 hour), the “BMP-7 Fold Increase/Dose” value is reported as ~8/2.5 fold. In the data set with BMP-7 (24 hour), the “BMP-7 fold increases (in words)” value is listed as “exhibit BMP-7 fold increases”.
